Source: PubChem BioAssay AID1963826 (Molecular Pharmacology Branch, DTP, NCI, 2024)
pIC50: −log10 of the molar value.

System: 926638-142-R-J1-PDC complex spheroid viability
Experiment: Anticancer human tumor 926638-142-R-J1-PDC patient-derived endometrial carcinoma cell line growth inhibition [POLQ]
Conditions: for pIC50: curve of first compound; for viability, T/C: stronger effect = lower value
How it was run: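 Three-cell-type spheroids modelling solid tumor plus stroma served as the readout system; POL inhibitors were tested individually and in combination, concentration ranges set by clinical Cmax where known.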

[1] = second compound 0.0316 µM, first compound 0.0316 µM
[2] = second compound 0.0316 µM, first compound 0.1 µM
[3] = second compound 0.0316 µM, first compound 0.316 µM
[4] = second compound 0.0316 µM, first compound 1 µM
[5] = second compound 0.0316 µM, first compound 3.16 µM
[6] = second compound 0.0316 µM, first compound 10 µM
[7] = second compound 0.1 µM, first compound 0.0316 µM
[8] = second compound 0.1 µM, first compound 0.1 µM
[9] = second compound 0.1 µM, first compound 0.316 µM
[10] = second compound 0.1 µM, first compound 1 µM
[11] = second compound 0.1 µM, first compound 3.16 µM
[12] = second compound 0.1 µM, first compound 10 µM
[13] = second compound 0.316 µM, first compound 0.0316 µM
[14] = second compound 0.316 µM, first compound 0.1 µM
[15] = second compound 0.316 µM, first compound 0.316 µM
[16] = second compound 0.316 µM, first compound 1 µM
[17] = second compound 0.316 µM, first compound 3.16 µM
[18] = second compound 0.316 µM, first compound 10 µM
[19] = second compound 1 µM, first compound 0.0316 µM
[20] = second compound 1 µM, first compound 0.1 µM
[21] = second compound 1 µM, first compound 0.316 µM
[22] = second compound 1 µM, first compound 1 µM
[23] = second compound 1 µM, first compound 3.16 µM
[24] = second compound 1 µM, first compound 10 µM
[25] = second compound 3.16 µM, first compound 0.0316 µM
[26] = second compound 3.16 µM, first compound 0.1 µM
[27] = second compound 3.16 µM, first compound 0.316 µM
[28] = second compound 3.16 µM, first compound 1 µM
[29] = second compound 3.16 µM, first compound 3.16 µM
[30] = second compound 3.16 µM, first compound 10 µM
[31] = second compound 10 µM, first compound 0.0316 µM
[32] = second compound 10 µM, first compound 0.1 µM
[33] = second compound 10 µM, first compound 0.316 µM
[34] = second compound 10 µM, first compound 1 µM
[35] = second compound 10 µM, first compound 3.16 µM
[36] = second compound 10 µM, first compound 10 µM
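Note: spheroids exposed to drugs for one week before readout.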
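Throughout, for viability, T/C: percent viability relative to DMSO vehicle control wells set as 100%.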

For `C=CC(=O)N1CCN(c2nc(=O)n(-c3c(C)ccnc3C(C)C)c3nc(-c4c(O)cccc4F)c(F)cc23)C(C)C1` (centres undefined) + Nc1ccc(C#CCN(C(=O)Cc2ncc(C(F)(F)F)cc2C(F)(F)F)c2ccc(F)cc2)nn1, the pIC50 (second compound 0.0316 µM) was < 5.00, the pIC50 (second compound 0.1 µM) was < 5.00 and the pIC50 (second compound 0.316 µM) was < 5.00. The pIC50 (second compound 1 µM) was < 5.00, the pIC50 (second compound 3.16 µM) was < 5.00 and the pIC50 (second compound 10 µM) was < 5.00. The viability, T/C [1] was 93.4%, the viability, T/C [2] was 106% and the viability, T/C [3] was 98.1%. It also gave a viability, T/C [4] of 92.5%, a viability, T/C [5] of 88.4% and a viability, T/C [6] of 52.5%. It also gave a viability, T/C [7] of 107%, a viability, T/C [8] of 103% and a viability, T/C [9] of 93.2%. It also gave a viability, T/C [10] of 86.6%, a viability, T/C [11] of 87.8% and a viability, T/C [12] of 55.8%. For the same compound, the viability, T/C [13] was 108%, the viability, T/C [14] was 91% and the viability, T/C [15] was 79.8%. The viability, T/C [16] was 90.1%, the viability, T/C [17] was 86.4% and the viability, T/C [18] was 53%. It also gave a viability, T/C [19] of 106%, a viability, T/C [20] of 86.8% and a viability, T/C [21] of 94.6%. The viability, T/C [22] was 82.3%, the viability, T/C [23] was 85.1% and the viability, T/C [24] was 53.5%. It also gave a viability, T/C [25] of 93%, a viability, T/C [26] of 99.7% and a viability, T/C [27] of 89.5%. It also gave a viability, T/C [28] of 93.6%, a viability, T/C [29] of 73.8% and a viability, T/C [30] of 53.8%. It also gave a viability, T/C [31] of 94.4%, a viability, T/C [32] of 98.5% and a viability, T/C [33] of 78.2%. The viability, T/C [34] was 78.7%, the viability, T/C [35] was 87% and the viability, T/C [36] was 60.4%.
For `CC(C)n1c(=O)n(C)c2cnc3cc(F)c(-c4ccc(OCCCN5CCCCC5)nc4)cc3c21` + Nc1ccc(C#CCN(C(=O)Cc2ncc(C(F)(F)F)cc2C(F)(F)F)c2ccc(F)cc2)nn1, the pIC50 (second compound 0.0316 µM) was < 5.00, the pIC50 (second compound 0.1 µM) was < 5.00 and the pIC50 (second compound 0.316 µM) was < 5.00. The pIC50 (second compound 1 µM) was < 5.00, the pIC50 (second compound 3.16 µM) was < 5.00 and the pIC50 (second compound 10 µM) was < 5.00. For the same compound, the viability, T/C [1] was 105%, the viability, T/C [2] was 98% and the viability, T/C [3] was 106%. The viability, T/C [4] was 107%, the viability, T/C [5] was 95% and the viability, T/C [6] was 73.6%. It also gave a viability, T/C [7] of 120%, a viability, T/C [8] of 103% and a viability, T/C [9] of 95.6%. For the same compound, the viability, T/C [10] was 106%, the viability, T/C [11] was 90.1% and the viability, T/C [12] was 74.6%. The viability, T/C [13] was 96.3%, the viability, T/C [14] was 99.2% and the viability, T/C [15] was 96%. For the same compound, the viability, T/C [16] was 93.9%, the viability, T/C [17] was 84.5% and the viability, T/C [18] was 65.4%. The viability, T/C [19] was 104%, the viability, T/C [20] was 106% and the viability, T/C [21] was 84.7%. For the same compound, the viability, T/C [22] was 90%, the viability, T/C [23] was 83% and the viability, T/C [24] was 73.7%. For the same compound, the viability, T/C [25] was 93.5%, the viability, T/C [26] was 84.7% and the viability, T/C [27] was 93%. It also gave a viability, T/C [28] of 93.8%, a viability, T/C [29] of 83.4% and a viability, T/C [30] of 71.2%. The viability, T/C [31] was 73.6%, the viability, T/C [32] was 85.6% and the viability, T/C [33] was 97.2%. For the same compound, the viability, T/C [34] was 96.1%, the viability, T/C [35] was 86.3% and the viability, T/C [36] was 67.1%.
